What all share (type): cell-based, human
The subject of one assay is U373 glioblastoma cells. In words: MTT cytotoxicity assay of vanadocenes, U373 cells. The settings on record: 24 h. In outline: (§1)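 IC50 values come from MTT colorimetry (540 nm) after 24 h drug treatment at 1.9–250 μM in two-fold steps, started 24 h post-seeding. Formazan formed over 4 h at 37 °C and was solubilized overnight in 10% SDS/0.1% HCl; triplicate wells, 0.25% DMSO solvent control.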

For assay [1], the system named is Ntera-2 testicular cancer cells. Description: MTT cytotoxicity assay of vanadocenes, NTERA-2 cells. The settings on record: 24 h, 1.9-250 μM. In outline:
as §1
On the technique in general: Tetrazolium assays rely on reduction of a dye to a coloured formazan, in cell work by metabolically active cells.

Assay [2] has as its system NALM-6 cells. Description: Mitochondrial mass determination, NAO staining. The settings on record: 0.1-1 μM, 24-96 hr. The protocol: Relative mitochondrial mass was measured by using Becton Dickinson Calibur flow cytometry and the fluorescent stain 10-n-nonyl-acridine orange (NAO), which binds the mitochondrial phospholipid cardiolipin, that has been extensively used to provide an index of mitochondrial mass (28). 1×10^6 compound 29-treated NALM-6 cells at concentrations of 0.1 μM to 1 μM for 24 hr, 48 hr, 72 hr, or 96 hr were incubated with 30 μM of NAO in complete medium for 10 min at room temp in the dark, washed with ice-cold PBS and analyzed using log scale photomultiplier to detect the green fluorescence at 527 nm. Relative change in the mitochondrial mass was measured using the mean fluorescence value of mitochondria of compound 29-treated and vehicle-treated cells.

For assay [3], the system named is NALM-6 cells. Description: MTT cytotoxicity assay of oxovanadium(IV) compounds, NALM-6. The settings on record: 48 hr. The method in brief:
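Formazan absorbance after a 4-hour MTT pulse gave viability following 48-hour compound exposure (0.1–250 μM) of cells seeded at 4×10^4 per well. Triplicate wells per treatment; IC50 from regression.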

In the case of `[Cl-].[Cl-].[V+4].c1cc[cH-]c1.c1cc[cH-]c1` [VDC, VCp2Cl2], the IC50 in the assay with U373 glioblastoma cells was 42 µM; in assay [1] it was 74 µM.

Turning to “bis(4,7-dimethyl-1,10-phenanthroline)sulfatooxovanadium(IV) [Compound 29]”, in the assay on NALM-6 cells [2], the “mitochondrial mass (NAO staining intensity, treated versus untreated)” value is “virtually identical staining intensity of NAO”. This molecule also had an IC50 in the assay with NALM-6 cells [3] of 0.2 ± 0.03 µM.

For orientation: IC50 means the concentration at which inhibition is half-maximal.
